Bounds are passed on as bounds.

The first test addresses recombinant human SYK (GST-hSYK fusion protein) (Homo sapiens, UniProt P43405). The test is described as follows: biochemical. To be noted: rhSYK Activity (IC50), recombinant human GST-SYK 5 pM, ATP 25 μM, biotinylated substrate peptide 250 nM, HTRF, 10-dose titration. A general note: In TR-FRET formats the signal depends on donor and acceptor labels being close together.
Description: Homogeneous Time-Resolved Fluorescence (HTRF) Assay for the Recombinant Human SYK Enzyme:
Usually IC50 stands for the concentration at which inhibition is half-maximal. `CC(=O)Nc1cc(Nc2nccc(OC3CCN(C(=O)OC(C)(C)C)CC3)n2)cc(-c2cnc(C3(O)CCC3)s2)c1` [109(1), tert-butyl 4-[2-({3-(acetylamino)-5-[2-(1-hydroxycyclobutyl)-1,3-thiazol-5-yl]phenylamino)pyrimidin-4-yl]oxy}piperidine-1-carboxylate]: the IC50 lay in the range of 100 to 1000 nM.

As to `CC(=O)Nc1cc(Nc2nccc(OC3CCNCC3)n2)cc(-c2cnc(C3(O)CCC3)s2)c1` [109(2), N-(3-[2-(1-hydroxycyclobutyl)-1,3-thiazol-5-yl]-5-{[4-(piperidin-4-yloxy)pyrimidin-2-yl]-amino}phenyl)acetamide], the IC50 is < 100 nM.

Consider `Cc1cc(Nc2nccc(C3CC3)n2)cc(-c2cnc([C@]3(O)CC[C@@H](C(=O)O)CC3)s2)c1` [110(1), Cis-4-(5-(3-[(4-cyclopropylpyrimidin-2-yl)amino]-5-methylphenyl)-1,3-thiazol-2-yl)-4-hydroxycyclohexanecarboxylic acid], for which the IC50 was < 100 nM.

Still in this test, the particulars now being: rhSYK Activity, Table 74A.
As to `CC(C)(c1ncc(-c2cccc(Nc3nccc(C(F)(F)F)n3)c2)s1)S(N)(=O)=O` [74A-3], the IC50 is < 100 nM.

As for `COc1ccnc(Nc2cc(C)cc(-c3cnc(C(C)(C)S(N)(=O)=O)s3)c2)n1` [74A-4], the IC50 is < 100 nM.

In the case of `Cc1cc(Nc2ncc(F)c(C)n2)cc(-c2cnc(C(C)(C)S(N)(=O)=O)s2)c1` [74A-5], the IC50 was < 100 nM.

Regarding `Cc1cc(Nc2ncc(F)c(C3CC3)n2)cc(-c2cnc(C(C)(C)S(N)(=O)=O)s2)c1` [74A-6], the IC50 is < 100 nM.

Consider `COc1nc(Nc2cc(C)cc(-c3cnc(C(C)(C)S(N)(=O)=O)s3)c2)ncc1Cl` [74A-7], for which the IC50 was < 100 nM.

As for `COc1nc(Nc2cc(C)cc(-c3cnc(C(C)(C)S(N)(=O)=O)s3)c2)ncc1F` [74A-8], the IC50 is < 100 nM.

With `Cc1cc(Nc2ncc(Cl)c(C)n2)cc(-c2cnc(C(C)(C)S(N)(=O)=O)s2)c1` [74A-9], the IC50 is < 100 nM.

Take `CC(C)(c1ncc(-c2cc(Nc3nccc(C(F)(F)F)n3)cc(C(F)F)c2)s1)S(N)(=O)=O` [74A-11]: the IC50 was < 100 nM.

For `Cc1cc(Nc2nccc(C)n2)cc(-c2cnc(C(C)(C)S(N)(=O)=O)s2)c1` [74A-12], the IC50 was < 100 nM.

For `Cc1cc(Nc2nccc(C3CC3)n2)cc(-c2cnc(C(C)(C)S(N)(=O)=O)s2)c1` [74A-13], the IC50 is < 100 nM.

Turning to `COC(=O)CNS(=O)(=O)C(C)(C)c1ncc(-c2cc(C)cc(Nc3nccc(C(F)(F)F)n3)c2)s1` [74A-14], the IC50 is < 100 nM.

Turning to `Cc1cc(Nc2nccc(C(F)(F)F)n2)cc(-c2cnc(C(C)(C)S(=O)(=O)NCC(=O)O)s2)c1` [74A-15], the IC50 is < 100 nM.

The same test, now with this note: rhSYK Activity, Table 116A.
As for `Cc1cc(Nc2nc(C)cc(C)n2)cc(-c2cnc([C@]3(O)CC[C@@H](O)CC3)s2)c1` [116A-1], the IC50 lay in the range of 1000 to 10000 nM.

On to `Cc1cc(Nc2ncc(F)c(C)n2)cc(-c2cnc([C@]3(O)CC[C@@H](C(=O)O)CC3)s2)c1` [116A-2], for which the IC50 is < 100 nM.

Consider `Cc1cc(Nc2nccc(C(C)C)n2)cc(-c2cnc([C@]3(O)CC[C@@H](C(=O)O)CC3)s2)c1` [116A-3], for which the IC50 is < 100 nM.

As to `Cc1cc(Nc2ncc(Cl)c(C)n2)cc(-c2cnc([C@]3(O)CC[C@@H](C(=O)O)CC3)s2)c1` [116A-4], the 50% inhibitory concentration (IC50) was < 100 nM.

`COc1nc(Nc2cc(C)cc(-c3cnc([C@]4(O)CC[C@@H](C(=O)O)CC4)s3)c2)ncc1F` [116A-5]: the IC50 was < 100 nM.

With `Cc1cc(Nc2nccc(C(C)(C)C)n2)cc(-c2cnc([C@]3(O)CC[C@@H](C(=O)O)CC3)s2)c1` [116A-6], the IC50 is < 100 nM.

On to `Cc1cc(Nc2nccc(OC(C)C)n2)cc(-c2cnc(C3(O)CCC(C(=O)O)CC3)s2)c1` (stereo not shown) [116A-7], for which the IC50 was < 100 nM.

In the case of `COc1nc(Nc2cc(C)cc(-c3cnc(C4(O)CCC(C(=O)O)CC4)s3)c2)ncc1Cl` (stereo not shown) [116A-8], the 50% inhibitory concentration (IC50) was < 100 nM.

With `Cc1cc(Nc2nccc(C(C)F)n2)cc(-c2cnc(C3(O)CCC(C(=O)OC(C)(C)C)CC3)s2)c1` (stereo not shown) [116A-10], the IC50 was < 100 nM.

With `COc1nc(Nc2cc(C)cc(-c3cnc(C4(O)CCC(C(=O)OC(C)(C)C)CC4)s3)c2)ncc1F` (stereo not shown) [116A-11], the IC50 is 100 to 1000 nM.

On to `Cc1cc(Nc2nccc(C(C)(C)C)n2)cc(-c2cnc(C3(O)CCC(C(=O)OC(C)(C)C)CC3)s2)c1` (stereo not shown) [116A-12], for which the IC50 was 100 to 1000 nM.

As to `Cc1cc(Nc2nccc(C(F)(F)C(F)(F)F)n2)cc(-c2cnc(C3(O)CCC(C(=O)O)CC3)s2)c1` (stereo not shown) [116A-13], the IC50 was < 100 nM.

As for `COc1nc(Nc2cc(C)cc(-c3cnc(C4(O)CCC(C(=O)OC(C)(C)C)CC4)s3)c2)ncc1Cl` (stereo not shown) [116A-14], the IC50 lay in the range of 100 to 1000 nM.

Consider `Cc1cc(Nc2nccc(-c3cccs3)n2)cc(-c2cnc(C3(O)CCC(C(=O)OC(C)(C)C)CC3)s2)c1` (stereo not shown) [116A-15], for which the half-maximal inhibitory concentration (IC50) was 100 to 1000 nM.

In the case of `Cc1cc(Nc2nccc(C(F)F)n2)cc(-c2cnc(C3(O)CCC(C(=O)O)C(C)C3)s2)c1` (stereo not shown) [116A-18], the IC50 was < 100 nM.

Take `Cc1cc(Nc2nccc(C(C)(C)C)n2)cc(-c2cnc(C3(O)CCC(C(=O)O)C(C)C3)s2)c1` (stereo not shown) [116A-20]: the IC50 was < 100 nM.

As to `Cc1cc(Nc2nccc(OC(C)C)n2)cc(-c2cnc(C3(O)CCC(C(=O)O)C(C)C3)s2)c1` (stereo not shown) [116A-21], the 50% inhibitory concentration (IC50) is < 100 nM.

For the molecule `COC(=O)C1CCC(O)(c2ncc(-c3cc(C)cc(Nc4ncc(F)cn4)c3)s2)CC1(C)C` (stereo not shown) [116A-22], the IC50 lay in the range of 100 to 1000 nM.

For the molecule `Cc1cc(Nc2ncc(F)c(O)n2)cc(-c2cnc(C3(O)CCC(C(=O)O)C(C)(C)C3)s2)c1` (stereo not shown) [116A-23], the IC50 was in the range of 100 to 1000 nM.

`Cc1cc(Nc2nccc(C(=O)O)n2)cc(-c2cnc([C@@]3(O)CC[C@H](C(=O)O)C(C)(C)C3)s2)c1` [116A-24]: the IC50 was < 100 nM.

For `COC(=O)C1CCC(O)(c2ncc(-c3cc(C)cc(Nc4ncc(F)c(C)n4)c3)s2)CC1(C)C` (stereo not shown) [116A-25], the IC50 was < 100 nM.

Take `Cc1cc(Nc2ncc(Cl)c(C)n2)cc(-c2cnc([C@@]3(O)CC[C@H](C(=O)O)C(C)(C)C3)s2)c1` [116A-27]: the half-maximal inhibitory concentration (IC50) is < 100 nM.

For the molecule `COc1nc(Nc2cc(C)cc(-c3cnc(C4(O)CCC(C(=O)O)C(C)(C)C4)s3)c2)ncc1F` (stereo not shown) [116A-28], the IC50 was < 100 nM.

With `Cc1cc(Nc2nccc(C(F)F)n2)cc(-c2cnc([C@@]3(O)CC[C@H](C(=O)O)C(C)(C)C3)s2)c1` [116A-30], the half-inhibitory concentration (IC50) was < 100 nM.

In the case of `Cc1cc(Nc2nccc(C3CCC3)n2)cc(-c2cnc([C@@]3(O)CC[C@H](C(=O)O)C(C)(C)C3)s2)c1` [116A-31], the IC50 is < 100 nM.

In the case of `Cc1cc(Nc2nccc(C(C)(C)C)n2)cc(-c2cnc(C3(O)CCC(C(=O)O)C(C)(C)C3)s2)c1` (stereo not shown) [116A-32], the IC50 was < 100 nM.

Turning to `Cc1cc(Nc2nccc(OC(C)C)n2)cc(-c2cnc([C@@]3(O)CC[C@H](C(=O)O)C(C)(C)C3)s2)c1` [116A-33], the IC50 is < 100 nM.

In the case of `COC(=O)C1CCC(O)(c2ncc(-c3cc(C)cc(Nc4ncc(Cl)c(C)n4)c3)s2)CC1(C)C` (stereo not shown) [116A-34], the IC50 was in the range of 100 to 1000 nM.

With `COC(=O)C1CCC(O)(c2ncc(-c3cc(C)cc(Nc4ncc(F)c(OC)n4)c3)s2)CC1(C)C` (stereo not shown) [116A-35], the IC50 lay within 100 to 1000 nM.

Consider `COc1nc(Nc2cc(C)cc(-c3cnc(C4(O)CCC(C(=O)O)C(C)(C)C4)s3)c2)ncc1Cl` (stereo not shown) [116A-36], for which the IC50 is < 100 nM.

Regarding `COC(=O)C1CCC(O)(c2ncc(-c3cc(C)cc(Nc4ncc(Cl)c(OC)n4)c3)s2)CC1(C)C` (stereo not shown) [116A-38], the IC50 is 100 to 1000 nM.
